This note sets out measurements from ChEMBL document CHEMBL2331280, “Cytotoxic, antitopoisomerase IIα, and anti-HIV-1 activities of triterpenoids isolated from leaves and twigs of Gardenia carinata” (J Nat Prod, 2013).

Structures are written as SMILES. Calls of active or inactive are those of the source. The rule behind the calls is not given here. Bounds are passed on as bounds.

The test system of one data set is HEK293. The data set is described as follows: Cytotoxicity against human HEK293 cells after 72 hrs by sulforhodamine B assay. The format is functional. Particulars: HEK293, 72 h, read-out: ED50 (the source's name). A general note: The SRB assay estimates cell density from bound dye.
Data set [1] in a line: Cytotoxicity against rat ASK cells after 72 hrs by sulforhodamine B assay. The format is functional. Particulars: read-out: ED50 (the source's name).
For another data set, the system named is KB. Briefly: Cytotoxicity against human KB cells after 72 hrs by sulforhodamine B assay. The format is functional. Particulars: read-out: ED50 (the source's name).
The nature of data set [2]: Selectivity index, ratio of IC50 for human 1A2 cells to EC50 for deltaTat/rev deffective HIV-1 MC99 infected in human 1A2 cells. The format is toxicity, cell-based. Particulars: read-out: Ratio IC50/EC50.
Data set [3] addresses Human immunodeficiency virus type 1 reverse transcriptase (Human immunodeficiency virus 1) (UniProt Q72547). Briefly: Inhibition of HIV-1 reverse transcriptase assessed as decrease in incorporation of [3H]TTP into polyA template at 200 ug/ml.
Data set [4] is described as follows: Cytotoxicity against human 1A2 cells assessed as inhibition of metabolic activity by XTT assay. The format is ADME, cell-based. Background: Formazan colour is commonly taken as a measure of viable cells.
The test system of another data set is MCF7. Briefly: Cytotoxicity against human MCF7 cells after 72 hrs by sulforhodamine B assay. The format is functional. Particulars: MCF7, 72 h, read-out: ED50 (the source's name).
The test system of another data set is Col2. The data set is described as follows: Cytotoxicity against human Col2 cells after 72 hrs by sulforhodamine B assay. The format is functional. The following applies: Col2, 72 h, read-out: ED50 (the source's name).
In data set [5] the test system is Human immunodeficiency virus 1. The data set is described as follows: Antiviral activity against deltaTat/rev deffective HIV-1 MC99 infected in human 1A2 cells assessed as inhibition of syncytia formation after 3 days. The format is functional, organism-based. Particulars: Human immunodeficiency virus 1, MC99, 1A2, 72 h.
For a further data set, the system named is Lu1. Briefly: Cytotoxicity against human Lu1 cells after 72 hrs by sulforhodamine B assay. Particulars: Lu1, 72 h, read-out: ED50 (the source's name). The format is functional.
The test system of a further data set is P388. Briefly: Cytotoxicity against mouse P388 cells after 48 hrs by sulforhodamine B assay. The format is functional. The following applies: P388, 48 h, read-out: ED50 (the source's name).
The target in data set [6] is DNA topoisomerase 2-alpha (Homo sapiens) (UniProt P11388). The data set is described as follows: Inhibition of human DNA topoisomerase 2 alpha-mediated supercoiled pBR322 DNA relaxation at 20 uM after 1 hr by agarose gel electrophoresis.
Chain of DNA topoisomerase 2-alpha (Homo sapiens) (P11388 whole entry): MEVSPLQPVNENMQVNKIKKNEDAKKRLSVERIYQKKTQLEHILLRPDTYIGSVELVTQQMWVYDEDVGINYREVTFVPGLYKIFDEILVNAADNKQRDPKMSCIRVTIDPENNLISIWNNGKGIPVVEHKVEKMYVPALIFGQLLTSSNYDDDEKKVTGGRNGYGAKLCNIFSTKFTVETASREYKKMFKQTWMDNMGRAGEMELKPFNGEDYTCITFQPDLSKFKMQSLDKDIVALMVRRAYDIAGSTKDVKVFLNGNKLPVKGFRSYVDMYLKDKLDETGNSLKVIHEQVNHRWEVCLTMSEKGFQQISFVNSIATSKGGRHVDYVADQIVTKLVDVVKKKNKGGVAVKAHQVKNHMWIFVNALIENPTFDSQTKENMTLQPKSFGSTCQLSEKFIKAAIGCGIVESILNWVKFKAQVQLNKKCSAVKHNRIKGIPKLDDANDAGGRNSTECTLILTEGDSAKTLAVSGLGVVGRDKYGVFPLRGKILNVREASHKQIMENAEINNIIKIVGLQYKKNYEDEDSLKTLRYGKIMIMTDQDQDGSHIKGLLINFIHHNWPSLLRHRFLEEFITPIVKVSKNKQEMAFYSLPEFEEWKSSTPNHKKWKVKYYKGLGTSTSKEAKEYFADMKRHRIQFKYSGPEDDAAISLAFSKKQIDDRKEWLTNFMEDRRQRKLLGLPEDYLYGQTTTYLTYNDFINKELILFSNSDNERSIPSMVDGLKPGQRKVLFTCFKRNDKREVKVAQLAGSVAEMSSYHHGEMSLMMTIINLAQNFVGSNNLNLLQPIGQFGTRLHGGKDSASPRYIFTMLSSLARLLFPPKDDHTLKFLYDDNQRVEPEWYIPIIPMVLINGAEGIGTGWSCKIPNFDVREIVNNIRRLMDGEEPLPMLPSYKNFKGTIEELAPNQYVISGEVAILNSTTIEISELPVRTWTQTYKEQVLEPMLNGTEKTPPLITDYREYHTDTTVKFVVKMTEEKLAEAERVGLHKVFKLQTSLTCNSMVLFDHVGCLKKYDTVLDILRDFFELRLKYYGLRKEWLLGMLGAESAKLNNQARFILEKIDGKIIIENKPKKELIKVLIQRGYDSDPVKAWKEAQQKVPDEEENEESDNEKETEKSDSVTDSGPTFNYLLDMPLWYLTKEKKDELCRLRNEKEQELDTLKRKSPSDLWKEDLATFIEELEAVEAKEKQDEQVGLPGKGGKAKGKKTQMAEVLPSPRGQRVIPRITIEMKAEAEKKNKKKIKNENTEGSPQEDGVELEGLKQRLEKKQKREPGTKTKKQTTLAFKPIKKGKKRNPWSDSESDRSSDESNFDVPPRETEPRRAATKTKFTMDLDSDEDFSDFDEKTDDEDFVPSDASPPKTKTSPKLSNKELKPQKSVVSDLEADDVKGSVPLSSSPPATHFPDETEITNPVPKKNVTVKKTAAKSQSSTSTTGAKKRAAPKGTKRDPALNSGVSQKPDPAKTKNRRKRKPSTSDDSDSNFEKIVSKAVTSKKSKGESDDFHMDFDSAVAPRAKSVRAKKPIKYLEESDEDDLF
Data set [7] concerns the target Human immunodeficiency virus type 1 reverse transcriptase (Human immunodeficiency virus 1, UniProt Q72547). The data set is described as follows: Inhibition of HIV-1 reverse transcriptase assessed as decrease in incorporation of [3H]TTP into polyA template.

Broadly, the inhibition is the percentage by which the read-out fell short of the control. As a reminder, the IC50 is the concentration that gives 50% inhibition. Take `C=C1COC(=O)CC[C@]23C[C@]24CC[C@]2(C)[C@@H]([C@H](C)CC(=O)C=C(C)C)CC[C@@]2(C)[C@@H]4CC[C@@H]13` (relative stereo): the EC50 with HEK293 was greater than 10 µM; in data set [1], greater than 10 µM; with KB it was greater than 10 µM; in the data set on MCF7 it was greater than 10 µM; in the data set with Col2 it was greater than 10 µM; in data set [5], 41.3 µM. The EC50 in the data set on Lu1 and in the data set with P388 was greater than 10 µM in each case. Also, the selectivity ratio in data set [2] is greater than 3.4. Moreover, the inhibition in [3] stood at 11.6%. Moreover, the IC50 in data set [4] was greater than 138 µM.

Take `C=C1C(=O)O[C@@H]2C[C@@H]3[C@]4(CC[C@]5(C)[C@@H]([C@H](C)CC(=O)C=C(C)C)CC[C@@]35C)C[C@]4(CCC(=O)OC)[C@H]12` [SECAUBRYOLIDE]: the EC50 in the data set on HEK293 was 3.2 µM; in data set [1], 4.6 µM; in the data set on KB, 2 µM; in the data set on MCF7 it was 4.2 µM; in the data set with Col2, 5.8 µM; with Lu1, 5 µM. Further, in the data set with P388, the EC50 is 1 µM. Besides, the inhibition in data set [3] is 0.4%. Also, the IC50 in data set [4] is less than 7.9 µM. Moreover, the inhibition result in data set [6] is “Active”.

On to `CC(C)CC(=O)C[C@@H](C)[C@H]1CC[C@@]2(C)[C@@H]3CC[C@H]4[C@](C)(C(=O)O)[C@@H](O)CC[C@@]45C[C@@]35CC[C@]12C` (relative stereo), for which the EC50 in the data set on HEK293 was greater than 10 µM; in data set [1], greater than 10 µM; with KB it was greater than 10 µM; in the data set on MCF7 it was greater than 10 µM; in the data set on Col2, greater than 10 µM; in data set [5], 62.7 µM. In addition, the EC50 with Lu1 is greater than 10 µM; in the data set on P388, 6.8 µM. The selectivity ratio in data set [2] came out at 1.2. Also, in [3], the inhibition stood at 1.9%. The IC50 in data set [4] worked out at 72.5 µM. In addition, in [6], the inhibition entry was “Active”.

In the case of `C=C(C(=O)O)[C@@H]1CC[C@@H]2[C@]3(CC[C@]4(C)[C@@H]([C@H](C)CC(=O)C=C(C)C)CC[C@@]24C)C[C@]13CCC(=O)OC` (relative stereo), the EC50 with HEK293 is greater than 10 µM; in data set [1] it was greater than 10 µM; in the data set with KB, greater than 10 µM; in the data set on MCF7, greater than 10 µM; with Col2, greater than 10 µM; in data set [5], 43 µM. In addition, the EC50 in the data set on Lu1 and in the data set on P388 was greater than 10 µM each time. For the same compound, the selectivity ratio in data set [2] worked out at 1.6. The inhibition in data set [3] was determined as 63.7%. In addition, in [4], the IC50 is 69.5 µM.

Consider `C=C1C(=O)O[C@@H]2C[C@@H]3[C@]4(CC[C@]5(C)[C@@H]([C@H](C)CC(=O)C=C(C)C)CC[C@@]35C)C[C@]4(CCC(=O)O)[C@H]12` (relative stereo), for which the EC50 in the data set on HEK293 was 5.2 µM; in data set [1], greater than 10 µM; with KB, 7.3 µM; in the data set on MCF7, 7.7 µM; with Col2 it was greater than 10 µM; in the data set with Lu1 it was greater than 10 µM. The EC50 in the data set with P388 came to 2.9 µM. Further, the concentration for half-maximal inhibition (IC50) in data set [7] was 85.7 µM; in data set [4], less than 8.1 µM. The inhibition in [3] turned out to be 81.2%. Besides, the inhibition entry in [6] was “Active”.

As to `Cc1cn([C@H]2C[C@H](N=[N+]=[N-])[C@@H](CO)O2)c(=O)[nH]c1=O` [ZIDOVUDINE], the IC50 in data set [4] was greater than 10000 µM. For the same compound, in [5], the EC50 is 0.00395 µM.

`C=C(CO)[C@@H]1CC[C@@H]2[C@H](CC[C@]3(C)[C@@H]([C@H](C)CC(=O)C=C(C)C)CC[C@@]23C)C[C@]12CCC(=O)O2` [CARINATIN G]: the EC50 was greater than 10 µM in the data set with HEK293; greater than 10 µM in data set [1]; greater than 10 µM in the data set on KB; greater than 10 µM in the data set on MCF7; greater than 10 µM in the data set on Col2; 13.4 µM in data set [5]. The figures for the EC50 in the data set on Lu1 and in the data set on P388 were greater than 10 µM and 4.9 µM, respectively. Further, the selectivity ratio in data set [2] stood at 3.4. Besides, the inhibition in [3] stood at 25.5%. In addition, the IC50 in data set [4] was determined as 46 µM. In addition, the inhibition result in data set [6] was “Active”.

Take `Cc1c2ccncc2c(C)c2c1[nH]c1ccccc12` [ELLIPTECINE]: the EC50 with HEK293 came to 1.9 µM; in data set [1] it was 2.2 µM; in the data set with KB, 2.2 µM; in the data set with MCF7 it was 2.3 µM; in the data set with Col2, 2.2 µM; in the data set on Lu1, 1.1 µM. Besides, the EC50 with P388 worked out at 1.9 µM.

For `C=C(C(=O)O)[C@@H]1CC[C@@H]2[C@]3(CC[C@]4(C)[C@@H]([C@H](C)CC(=O)C=C(C)C)CC[C@@]24C)C[C@]13CCC(=O)O`, the EC50 with HEK293 is greater than 10 µM; in data set [1], greater than 10 µM; in the data set with KB it was greater than 10 µM; with MCF7, greater than 10 µM; with Col2, greater than 10 µM; in data set [5] it was less than 8.3 µM. Moreover, the EC50 with Lu1 and with P388 was greater than 10 µM in each case. The results for the half-inhibitory concentration (IC50) in data set [7] and in data set [4] were 68.7 µM and 57.7 µM, respectively. For the same compound, in [2], the selectivity ratio is greater than 7. Further, the inhibition in data set [3] was found to be 88.1%.

Consider `COc1cc2c(ccc3c4cc(OC)c(OC)cc4c[n+](C)c23)cc1O` [FAGARONINE], for which the IC50 in data set [7] amounted to 26.5 µM.

As for `CC(C)CC(=O)C[C@@H](C)[C@H]1CC[C@@]2(C)[C@@H]3CC[C@H]4[C@](C)(C(=O)O)[C@@H](O)C[C@H](O)[C@@]45C[C@@]35CC[C@]12C` [CARINATIN A], the EC50 is greater than 10 µM with HEK293; greater than 10 µM in data set [1]; greater than 10 µM in the data set on KB; greater than 10 µM with MCF7; greater than 10 µM in the data set on Col2; 15.4 µM in data set [5]. The EC50 in the data set with Lu1 and with P388 was greater than 10 µM in each case. In addition, in [2], the selectivity ratio is 1.8. In addition, the inhibition in data set [3] was 6%. In data set [4], the IC50 was 27 µM.

In the case of `C=C1C(=O)O[C@@H]2C[C@@H]3[C@]4(CC[C@]5(C)[C@@H]([C@H](C)CC(=O)CC(C)(C)O)CC[C@@]35C)C[C@]4(CCC(=O)OC)[C@H]12` (relative stereo), the EC50 in the data set on HEK293 is 4.1 µM; in data set [1], 5.8 µM; in the data set on KB, 6.8 µM; in the data set on MCF7, 5.2 µM; in the data set on Col2, 6.2 µM; with Lu1 it was 7.2 µM. Also, in the data set with P388, the EC50 was determined as 1.4 µM. The inhibition in data set [3] amounted to 35.9%. Further, the IC50 in data set [4] is less than 15.2 µM. Moreover, in [6], the inhibition entry is “Active”.

`COc1cc([C@@H]2c3cc4c(cc3[C@@H](O[C@@H]3O[C@@H]5CO[C@@H](C)O[C@H]5[C@H](O)[C@H]3O)[C@H]3COC(=O)[C@H]23)OCO4)cc(OC)c1O` had an inhibition in [6] of 59%.
